The record followed here is PubChem BioAssay (NCI).

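48-hour exposure; five concentrations; linearly interpolated endpoints. GI50 is the concentration that inhibits growth by half. Definition used: TGI = concentration required for complete inhibition of growth.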 Bounds are passed on as bounds.

Among the test systems are OVCAR-8 ovarian; SK-MEL-2 melanoma; LOX IMVI melanoma; HCT-116 colon; SF-268 CNS; BT-549 breast; K-562 leukemia; SNB-75 CNS; 786-0 renal; EKVX NSCLC.
Common to all, as to test: NCI-60 cell line screen, 48 h

Take `Cc1c(Cl)cccc1NC(=O)c1sc2nc3c(cc2c1N)C(=O)CCC3`: the GI50 with OVCAR-8 ovarian is 272 nM; in the assay with SK-MEL-2 melanoma, 44 nM; in the assay on LOX IMVI melanoma, 78.2 nM; with HCT-116 colon, 64.4 nM; in the assay with SF-268 CNS, 206 nM; in the assay with BT-549 breast, 169 nM. The values for the GI50 in the assay with K-562 leukemia, in the assay on SNB-75 CNS and in the assay with 786-0 renal were 37.1 nM, 38.5 nM and 91.7 nM, respectively. Besides, the TGI was over 55.6 µM in the assay on OVCAR-8 ovarian; over 56 µM in the assay with SK-MEL-2 melanoma; over 100 µM in the assay with LOX IMVI melanoma; over 100 µM in the assay with HCT-116 colon; over 100 µM in the assay with SF-268 CNS; over 100 µM in the assay with BT-549 breast. The TGI is over 100 µM in the assay with K-562 leukemia, 20.9 µM in the assay with SNB-75 CNS and over 59.4 µM in the assay with 786-0 renal.

As to `O=[N+]([O-])c1cccc(S(=O)(=O)N/N=C/c2cc(I)cc([N+](=O)[O-])c2O)c1`, the TGI in the assay with OVCAR-8 ovarian is 63.2 µM; in the assay on SK-MEL-2 melanoma, 39 µM; with LOX IMVI melanoma, 62.3 µM; in the assay on HCT-116 colon, 71.1 µM; in the assay with SF-268 CNS, 79.3 µM; in the assay with EKVX NSCLC it was 80 µM. For the same compound, the values for the TGI in the assay with K-562 leukemia, in the assay on SNB-75 CNS and with 786-0 renal were 58.4 µM, 67.2 µM and over 100 µM, respectively.

Regarding `COc1ccc(NC(=O)c2oc3cc(O)ccc3c(=O)c2C)c([N+](=O)[O-])c1`, the TGI in the assay on OVCAR-8 ovarian, in the assay on SK-MEL-2 melanoma, in the assay with LOX IMVI melanoma, with HCT-116 colon, with SF-268 CNS and with EKVX NSCLC was over 100 µM each time. The TGI with K-562 leukemia, with SNB-75 CNS and in the assay with 786-0 renal was over 100 µM throughout.

With `CCCCCCCCC(C)CCCCCCCCC(=O)OCC(COP(=O)([O-])OCC[N+](C)(C)C)OC(=O)CCCCCCCCC(C)CCCCCCCC` (centres undefined), the TGI in the assay on OVCAR-8 ovarian, in the assay on SK-MEL-2 melanoma, with LOX IMVI melanoma, in the assay with HCT-116 colon, in the assay on SF-268 CNS and with EKVX NSCLC was over 100 µM in each case. The TGI in the assay with K-562 leukemia, in the assay with SNB-75 CNS and in the assay with 786-0 renal was over 100 µM throughout.

Turning to `COc1cc2c3c(n([C@@H]4CCOC4)c(=O)c2cc1OC)-c1cc2c(cc1C3=O)OCO2`, the GI50 with OVCAR-8 ovarian is 13.2 nM; in the assay with SF-268 CNS, under 10 nM; with BT-549 breast, 21.8 nM; with K-562 leukemia, 16.6 nM; in the assay with 786-0 renal, under 10 nM. Also, the TGI was over 100 µM in the assay on OVCAR-8 ovarian; over 100 µM in the assay with SF-268 CNS; over 100 µM with BT-549 breast; over 100 µM in the assay on K-562 leukemia; 0.0183 µM in the assay on 786-0 renal.

As for `CC(C)N1C(C)[C@@H](c2ccccc2)O[P@@]1(=O)CC1=CCCCC1` (some centres undefined), the TGI with OVCAR-8 ovarian, in the assay with SK-MEL-2 melanoma, in the assay with LOX IMVI melanoma, with HCT-116 colon, in the assay on SF-268 CNS and with EKVX NSCLC was over 100 µM throughout. Besides, the TGI with K-562 leukemia, in the assay on SNB-75 CNS and with 786-0 renal was over 100 µM each time.

Regarding `O=C(NCCCl)Nc1ccccc1`, the TGI in the assay with OVCAR-8 ovarian, with SK-MEL-2 melanoma, in the assay on LOX IMVI melanoma, in the assay on HCT-116 colon, in the assay on SF-268 CNS and with EKVX NSCLC was over 100 µM in each case. Moreover, the TGI in the assay with K-562 leukemia, in the assay with SNB-75 CNS and in the assay on 786-0 renal was over 100 µM throughout.

As to `COc1ccc2c(CCCc3ccc(Cl)cc3Cl)c3[n+](cc2c1OC)CCc1cc2c(cc1-3)OCO2`, the GI50 is 370 nM in the assay on LOX IMVI melanoma, 365 nM with BT-549 breast, 467 nM with EKVX NSCLC and 1270 nM in the assay with 786-0 renal. Moreover, the TGI is 1.44 µM in the assay on LOX IMVI melanoma, 1.4 µM with BT-549 breast, 1.99 µM with EKVX NSCLC and 2.74 µM with 786-0 renal.

Take `CCC[CH2][Sn]([CH2]CCC)([O]C(=O)c1cc(F)ccc1F)[O]C(=O)c1cc(F)ccc1F`: the GI50 in the assay with OVCAR-8 ovarian is 1340 nM; with SK-MEL-2 melanoma, 649 nM; in the assay on LOX IMVI melanoma, 581 nM; in the assay on HCT-116 colon, 1250 nM; in the assay with SF-268 CNS it was 1140 nM; in the assay on EKVX NSCLC it was 1260 nM. Besides, the GI50 in the assay on K-562 leukemia was 294 nM; in the assay with SNB-75 CNS it was 1130 nM; in the assay on 786-0 renal it was 1150 nM. The TGI in the assay on OVCAR-8 ovarian came to 2.65 µM; with SK-MEL-2 melanoma, 1.87 µM; in the assay on LOX IMVI melanoma, 1.85 µM; with HCT-116 colon it was 2.5 µM; in the assay on SF-268 CNS it was 2.37 µM; in the assay with EKVX NSCLC it was 2.51 µM. For the same compound, the TGI with K-562 leukemia stood at 1.35 µM; in the assay on SNB-75 CNS, 2.49 µM; in the assay with 786-0 renal, 2.37 µM.

With `O=C(NCc1ccco1)C1CCN(S(=O)(=O)c2ccc(Cl)cc2)CC1`, the GI50 in the assay with OVCAR-8 ovarian was over 100000 nM; with SK-MEL-2 melanoma, over 100000 nM; with LOX IMVI melanoma it was 36300 nM; in the assay with HCT-116 colon, 59800 nM; with SF-268 CNS, over 100000 nM; in the assay on BT-549 breast it was over 100000 nM. The GI50 was 39200 nM in the assay with K-562 leukemia, over 100000 nM in the assay on SNB-75 CNS and over 100000 nM with 786-0 renal. The TGI in the assay on OVCAR-8 ovarian, in the assay on SK-MEL-2 melanoma, in the assay on LOX IMVI melanoma, with HCT-116 colon, in the assay with SF-268 CNS and with BT-549 breast was over 100 µM throughout. Moreover, the TGI in the assay with K-562 leukemia, with SNB-75 CNS and with 786-0 renal was over 100 µM throughout.

In the case of `Cn1cc(C2=C(c3cc[nH]c3)C(=O)NC2=O)c2ccccc21`, the GI50 with OVCAR-8 ovarian is over 25000 nM; with SK-MEL-2 melanoma, over 25000 nM; in the assay with LOX IMVI melanoma, over 25000 nM; in the assay with HCT-116 colon it was over 25000 nM; in the assay with SF-268 CNS it was over 25000 nM; in the assay with BT-549 breast, over 17900 nM. Besides, the GI50 with K-562 leukemia is over 25000 nM; in the assay with SNB-75 CNS, 1960 nM; with 786-0 renal it was over 25000 nM. The TGI in the assay on OVCAR-8 ovarian, in the assay on SK-MEL-2 melanoma, with LOX IMVI melanoma, with HCT-116 colon, in the assay with SF-268 CNS and in the assay on BT-549 breast was over 25 µM each time. Besides, the TGI with K-562 leukemia, in the assay with SNB-75 CNS and in the assay on 786-0 renal was over 25 µM each time.

Turning to `Cc1ccc(C)c(NC(=O)C(=O)C2C(=O)N(c3ccccc3)N=C2N)c1` (centres undefined), the TGI with OVCAR-8 ovarian, with SK-MEL-2 melanoma, with LOX IMVI melanoma, with HCT-116 colon, with SF-268 CNS and with EKVX NSCLC was over 100 µM each time. For the same compound, the TGI in the assay with K-562 leukemia, in the assay with SNB-75 CNS and in the assay on 786-0 renal was over 100 µM in each case.
